According to patent publication US9085593B2, “Therapeutic agent for arthrosis” (SANSHO CO., LTD., priority 2011, dated 2015):
“And” between values parts separate entries of the source, which are not always exact repeats. Equal values may be shown once.

Tests used:
[1] = tested on: osteoarthritis in rabbit knee; assay: Pain assessment (weight distribution across both hind limbs), rabbit knee osteoarthritis model; type: in vivo, rabbits (Kbs:NZW); conditions: for Weight distribution, Mean / Left hind limb / Right hind limb / Weight distribution (%) on treated limb (right hind limb): 10 μg/rabbit into joint cavity; for Weight distribution, Mean: group mean n=6; for Left hind limb / Right hind limb / Weight distribution (%) on treated limb (right hind limb): individual animals 201-206, listed as Test substance, sodium salt
Procedure: (§1) Twelve 11- to 12-week-old male rabbits (Kbs:NZW) were used. Rabbits were reared in separate cages (one rabbit per cage) at 14.4° C. to 24.9° C. under light (12 hours from 7:00 am to 7:00 pm) with continuous ventilation. Rabbits were allowed to eat 150 g of feed (CR-3, CLEA Japan, Inc.) per day and to drink tap water.
(§2) (9Z)-9-Octadecenoic acid-(2-hydroxy-2-oxide-1,2-oxaphospholan-4-yl)methyl ester sodium salt (C18:1-cPA; hereafter, referred to as “ScPA”) was used.
(§3) Hair in the vicinity of the knee joint of the right hind limb of a rabbit was shaved using electrical clippers under deep anesthesia, and the shaved area was disinfected with Isodine. The outer coat on the medial aspect of the right hind limb was incised with a surgical knife, the boundary between the medial aspect and the articular capsule of the patellofemoral ligament was further incised, and the medial patellofemoral ligament was then dissected. Thereafter, the articular capsule was spread wide open to expose the medial meniscus, which was then completely removed. Following the removal of the meniscus, tissue and epidermis in the vicinity of the articular capsule were sutured. At the time of suturing, the site of operation was washed with physiological saline (titer: 500 mg/20 ml) containing antibiotics (Viccillin, Meiji Seika Pharma Co., Ltd.).
(§4) After the model animals were prepared, they were divided into two groups each consisting of 6 individuals while averaging body […] (i.e., the vehicle administered group of Animal Numbers 101 to 106 and the test substance (ScPA) administered group of Animal Numbers 201 to 206).
(§5) The test compound and the vehicle were administered in the manner described below. • Route of administration: into the joint cavity • Site of administration: right hind limb (treated limb) • Timing of administration: on days 7, 11, 14, 18, 21, 25, 28, 32, 35, and 39 • Dosage: Test compound: 10 μg/rabbit (volume: 0.2 ml) • Vehicle: 0.2 ml/rabbit • Means of administration: with the use of a 1.0-ml syringe (Terumo Corporation) and a 27 G injection needle (Terumo Corporation) (1-5) Pain Assessment (Weight Distribution Across both Hind Limbs) Frequency of Measurement:
Measurement was carried out seven times in total: i.e., before treatment and 1, 2, 3, 4, 5, and 6 weeks after the treatment.
Body weights loaded on the right hind limb and the left hind limb were separately measured using a weight scale, and the weight distribution on the treated limb (the right hind limb) was determined using the following equation. Weight distribution (%) on treated limb (right hind limb)=[right hind limb (kg)/(right hind limb (kg)+left hind limb (kg))]×100 (1-6) Swelling Assessment (Articular Swelling of both Hind Limbs) Frequency of Measurement: […]

[2] = tested on: osteoarthritis in rabbit knee; assay: Swelling assessment (articular swelling of both hind limbs), rabbit knee osteoarthritis model; type: in vivo, rabbits (Kbs:NZW)
Procedure: as §1, §2, §3, §4, §5
Measurement was carried out 6 weeks after the treatment.
The widest areas at the joints of the right and left hind limbs were measured using digital calipers, and the articular swelling induced by osteoarthritis was determined using the following equation. Swelling (%) of treated limb (right hind limb)=[(right hind limb (mm)−left hind limb (mm))/(left hind limb (mm)[…])]×100 (1-7) Sampling of Biomaterials (day 42) and Post-Sampling Treatment

[3] = joint width, 10 μg/rabbit into joint cavity, Day 42, individual animals 201-206, listed as Test substance, sodium salt

## CCCCCCCC/C=C\CCCCCCCC(=O)OCC1COP(=O)([O-])C1.[Na+] (stereo not shown) [ScPA, (9Z)-9-Octadecenoic acid-(2-hydroxy-2-oxide-1,2-oxaphospholan-4-yl)methyl ester sodium salt]
[1]; Day 0 (before treatment)
  Weight distribution, Mean: 49.1%
  Left hind limb: 610 g and 400 g and 550 g and 460 g and 260 g and 310 g
  Right hind limb: 660 g and 320 g and 410 g and 490 g and 270 g and 350 g
  Weight distribution (%) on treated limb (right hind limb): 52% (2×) and 44% and 43% and 51% and 53%
[1]; Day 7
  Weight distribution, Mean: 32.1%
  Left hind limb: 1010 g and 410 g and 900 g and 750 g (2×) and 880 g
  Right hind limb: 660 g and 160 g and 140 g and 520 g and 430 g and 460 g
  Weight distribution (%) on treated limb (right hind limb): 40% and 28% and 13% and 41% and 33% and 38%
[1]; Day 14
  Weight distribution, Mean: 39.4%
  Left hind limb: 770 g and 400 g and 640 g and 810 g and 700 g and 600 g
  Right hind limb: 520 g and 200 g and 320 g and 630 g and 380 g and 610 g
  Weight distribution (%) on treated limb (right hind limb): 40% and 33% (2×) and 44% and 35% and 50%
[1]; Day 21
  Weight distribution, Mean: 43.0%
  Left hind limb: 710 g and 440 g and 350 g and 580 g (2×) and 760 g
  Right hind limb: 380 g and 370 g and 720 g and 250 g and 450 g and 440 g
  Weight distribution (%) on treated limb (right hind limb): 35% and 46% and 67% and 30% and 37% and 43%
[1]; Day 28
  Weight distribution, Mean: 47.0%
  Left hind limb: 700 g and 290 g and 260 g and 750 g and 710 g and 800 g
  Right hind limb: 600 g (2×) and 150 g and 390 g and 660 g and 780 g
  Weight distribution (%) on treated limb (right hind limb): 46% (2×) and 34% and 60% and 47% and 49%
[1]; Day 35
  Weight distribution, Mean: 39.1%
  Left hind limb: 650 g and 800 g and 470 g and 1030 g and 570 g and 870 g
  Right hind limb: 350 g (2×) and 380 g and 630 g and 560 g and 510 g
  Weight distribution (%) on treated limb (right hind limb): 35% and 30% and 45% and 38% and 50% and 37%
[1]; Day 42, p=0.0053 vs vehicle
  Weight distribution, Mean: 46.7%
[1]; Day 42
  Left hind limb: 620 g and 700 g and 380 g and 820 g and 840 g and 580 g
  Right hind limb: 440 g and 510 g and 630 g and 660 g and 520 g and 610 g
  Weight distribution (%) on treated limb (right hind limb): 42% (2×) and 62% and 45% and 38% and 51%
[1]; after day 14 up to day 42
  weight loaded on the treated limb (the right hind limb) compared with the vehicle administered group: maintained at higher levels
[2]; 10 μg/rabbit into joint cavity, Day 42, group mean n=6, p=0.0164 vs vehicle
  Swelling, Mean: 0.6%
[2]; 10 μg/rabbit into joint cavity, Day 42, individual animals 201-206, listed as Test substance, sodium salt
  Swelling (%) of treated limb (right hind limb): −1.75% and 1.58% and 3.72% and −5.46% and 6.59% and −1.97%
[2]; day 42, p=0.0164
  articular swelling compared with the vehicle administered group: inhibited more significantly
[2]; [3]
  Left hind limb (mm): 24.60 mm and 23.38 mm and 21.50 mm and 22.88 mm and 23.21 mm and 21.79 mm
  Right hind limb (mm): 24.17 mm and 23.75 mm and 22.30 mm and 21.63 mm and 24.74 mm and 21.36 mm
